Reference: publication PMC5301048, “Selection and early clinical evaluation of the brain‐penetrant 11β‐hydroxysteroid dehydrogenase type 1 (11β‐HSD1) inhibitor UE2343 (Xanamem™)” (British Journal of Pharmacology, 2017)
Where two headings read alike, the source gives them in different places.

Legend:
[1] = Microsomal stability, human liver microsomes; format: in vitro ADME; settings: mean ± SD [n]
Method: (§1) Microsomal stability was determined using pooled human, rat or dog liver microsomes according to the method described in WO2011135276 (Webster et al., 2011a).

[2] = biological target: T1, CYP3A4 (Homo sapiens, UniProt P08684); assay: Cytochrome P450 inhibition, CYP3A4; format: in vitro ADME; settings: human liver microsomes; read-out: CYP450 isoform 3A4 IC50
T1 construct: tissue Cyprotex Discovery Limited; host or cells: human liver microsomes
Method: Testing was performed by Cyprotex Discovery Limited, Cheshire, UK. Six test compound concentrations (0.4, 1, 4, 10, 40 and 100 μM; final DMSO concentration 0.25%, final microsome concentration 0.25 mg·mL^−1) were either pre‐incubated for 30 min in the absence and presence of NADPH or underwent a 0 min pre‐incubation with human liver microsomes. At the end of the pre‐incubation period, the probe substrate for each cytochrome P450 (CYP450) isoform (30 μM) and NADPH (1 mM) were then added (final DMSO concentration 0.3%), and the samples were incubated for 5 min at 37°C. Probe substrates were as follows: 1A2 – phenacetin, 2C9 – diclofenac, 2C19 – mephenytoin, 2D6 – dextromethorphan, 3A4 – midazolam and testosterone. Samples were subjected to LC–MS/MS analysis to determine metabolite concentrations. A decrease in the formation of the metabolite compared with vehicle control was used to calculate an IC50 value (test compound concentration which produces 50% inhibition) for each experimental condition.

[3] = CSF study, plasma and CSF pharmacokinetics; format: in vivo; settings: human; for Tmax: median (range); for Kp at 5 h / concentration at 5 h / Cmax / half-life / AUC(0-t): 35 mg; for concentration at 5 h: CSF; for AUC(0-t): read-out: AUC0–12h
Method: (§2) A non‐randomized, open label, multiple dose phase I study to determine the pharmacokinetic parameters of UE2343 in CSF was carried out at Linear Clinical Research Ltd, Nedlands, Australia. Four healthy male subjects each received 35 mg UE2343 b.i.d (12 hourly) fed (30 min after the start of a standard meal) for 3 days (Day 1 to Day 3) and once on the morning of Day 4 (seven doses in total). Plasma pharmacokinetic samples were taken from each subject on Day 1 and Day 4. A single CSF sample was taken from each subject at 5 h post‐final dose on Day 4, corresponding to the plasma Tmax (time to maximum plasma concentration).
(§3) Laboratory evaluation of clinical safety parameters was carried out using standard validated methods. Measurement of plasma pharmacodynamic markers [adrenocorticotropic hormone (ACTH), cortisol, 4‐androstenedione, testosterone and dehydroepiandrosterone sulphate (DHEA‐s)] was carried out using commercially available kits. Each method was fully validated prior to analysis. Urinary steroid metabolites were measured according to established methods (Boonen et al., 2013). UE2343 levels in plasma, urine and CSF was determined by LC–MS/MS using fully validated methods.
The data and statistical analysis comply with the recommendations on experimental design and analysis in pharmacology (Curtis et al., 2015). Levels of probability, P < 0.05 were deemed to constitute the threshold for statistical significance. Pharmacokinetic parameters, except Tmax (time of maximum observed drug concentration), are given as mean ± coefficient of variation (CV%). Tmax is given as median ± range. For each of the pharmacodynamic parameters [ACTH, cortisol, adrenal androgens, tetrahydrocortisols (THFs)/tetrahydrocortisone (THE) ratio], the maximum % change from baseline for each subject was subjected to ANOVA. For selected data, an additional covariate factor for the baseline was also included in the ANOVA/analysis of covariance (ANCOVA) model. Associated P‐values <0.05 for each comparison have been presented.

[4] = Microsomal stability, dog liver microsomes; format: in vitro ADME; settings: mean ± SD [n]
Method: as §1

[5] = Clinical safety and tolerability in healthy subjects; format: in vivo, human
Method: A double‐blind, randomized, placebo‐controlled single ascending dose study was carried out at Simbec Research Ltd, Merthyr Tydfil, UK. Each cohort consisted of six healthy male subjects and two females of non‐child bearing potential. Two male ‘dose leader’ subjects (1 active : 1 placebo) were dosed first in each cohort. The remainder of the cohort (5 active : 1 placebo) were dosed 24 h later. Dose cohorts were 2, 5, 10, 18, 25 and 35 mg. Safety, pharmacokinetic and pharmacodynamic assessments were made at pre‐determined time‐points during each part of the study. Dose escalation was dependent upon satisfactory review of the blinded safety (up to Day 6) and pharmacokinetic (up to 24 h post‐dose) data from the preceding cohort.
A double‐blind, randomized, placebo‐controlled multiple ascending dose study was carried out at Linear Clinical Research Ltd, Nedlands, Australia. Each cohort consisted of eight healthy male subjects. Each subject received UE2343 or placebo twice daily (b.i.d ) (12 hourly) in the fed state for 9 days (Day 1 to Day 9) and once on the morning of Day 10 (19 doses in total). Dose cohorts were 10, 20 and 35 mg. Dose escalation and selection was dependent upon satisfactory review of the blinded safety (up to Day 17 ± 2) and plasma pharmacokinetics (up to Day 12) data from the preceding cohort. Safety, pharmacokinetic and pharmacodynamic assessments were made at pre‐determined time‐points during each part of the study.
as §2, §3

[6] = tested on: 29 enzymes and 72 receptors, including the glucocorticoid and mineralocorticoid receptors; assay: Off-target diversity screen (data not shown); settings: in words
[7] = biological target: T2, hERG K+ channel (Homo sapiens, UniProt Q12809); assay: hERG inhibition, IonWorks Quattro patch clamp; format: cell-based
T2 construct: Chinese hamster lung cell line stably expressing the full length hERG channel; host or cells: Chinese hamster lung cell line
Method: Testing was performed by Essen Instruments, Hertfordshire, UK. Compounds were tested for inhibition of the human ether a go‐go related gene (hERG) K+ channel in a Chinese hamster lung cell line stably expressing the full length hERG channel. Single cell ionic currents were measured in the perforated patch clamp configuration at room temperature using an IonWorks Quattro instrument. Eight‐point concentration–response curves were generated using threefold serial dilutions from the maximum final assay concentration. IC50 values were obtained from a four‐parameter logistic fit of the % inhibition data.

[8] = male, plasma, oral, 35 mg b.i.d, Day 1, mean (CV%)
[9] = male, plasma, oral, 35 mg b.i.d, Day 4, mean (CV%)
[10] = multiple ascending dose study, 24 subjects (active and placebo)
[11] = multiple ascending dose study, in words

T2 sequence (Q12809 whole entry): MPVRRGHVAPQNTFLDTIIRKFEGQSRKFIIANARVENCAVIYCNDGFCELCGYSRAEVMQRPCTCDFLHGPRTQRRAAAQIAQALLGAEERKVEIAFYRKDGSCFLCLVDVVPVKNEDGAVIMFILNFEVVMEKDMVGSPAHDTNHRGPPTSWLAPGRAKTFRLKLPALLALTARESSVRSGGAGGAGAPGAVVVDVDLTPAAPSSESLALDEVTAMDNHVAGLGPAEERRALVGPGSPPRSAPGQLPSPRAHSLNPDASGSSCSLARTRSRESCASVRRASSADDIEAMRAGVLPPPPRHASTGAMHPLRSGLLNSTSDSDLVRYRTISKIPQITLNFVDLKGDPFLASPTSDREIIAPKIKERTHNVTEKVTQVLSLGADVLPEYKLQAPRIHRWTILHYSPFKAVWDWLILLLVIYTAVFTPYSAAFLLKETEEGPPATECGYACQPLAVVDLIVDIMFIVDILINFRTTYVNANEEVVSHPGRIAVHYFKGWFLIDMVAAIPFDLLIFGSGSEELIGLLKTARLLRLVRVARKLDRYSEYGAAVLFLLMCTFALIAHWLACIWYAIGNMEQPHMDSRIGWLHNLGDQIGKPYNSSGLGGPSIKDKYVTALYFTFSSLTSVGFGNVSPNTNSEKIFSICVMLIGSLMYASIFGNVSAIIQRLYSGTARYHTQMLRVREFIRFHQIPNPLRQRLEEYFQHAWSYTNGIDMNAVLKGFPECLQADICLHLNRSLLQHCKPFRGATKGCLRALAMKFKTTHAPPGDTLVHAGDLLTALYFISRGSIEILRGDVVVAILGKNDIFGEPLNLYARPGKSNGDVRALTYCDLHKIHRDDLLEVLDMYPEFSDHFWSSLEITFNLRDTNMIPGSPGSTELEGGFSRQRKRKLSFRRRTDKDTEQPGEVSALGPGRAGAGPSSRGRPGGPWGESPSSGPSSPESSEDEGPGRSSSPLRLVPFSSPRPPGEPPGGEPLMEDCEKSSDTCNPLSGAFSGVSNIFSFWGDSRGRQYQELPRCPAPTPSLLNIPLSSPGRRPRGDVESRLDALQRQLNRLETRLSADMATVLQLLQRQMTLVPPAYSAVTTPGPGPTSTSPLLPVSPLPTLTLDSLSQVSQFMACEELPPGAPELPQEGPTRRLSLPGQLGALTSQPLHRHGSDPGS
T1 sequence (P08684 whole entry, canonical isoform): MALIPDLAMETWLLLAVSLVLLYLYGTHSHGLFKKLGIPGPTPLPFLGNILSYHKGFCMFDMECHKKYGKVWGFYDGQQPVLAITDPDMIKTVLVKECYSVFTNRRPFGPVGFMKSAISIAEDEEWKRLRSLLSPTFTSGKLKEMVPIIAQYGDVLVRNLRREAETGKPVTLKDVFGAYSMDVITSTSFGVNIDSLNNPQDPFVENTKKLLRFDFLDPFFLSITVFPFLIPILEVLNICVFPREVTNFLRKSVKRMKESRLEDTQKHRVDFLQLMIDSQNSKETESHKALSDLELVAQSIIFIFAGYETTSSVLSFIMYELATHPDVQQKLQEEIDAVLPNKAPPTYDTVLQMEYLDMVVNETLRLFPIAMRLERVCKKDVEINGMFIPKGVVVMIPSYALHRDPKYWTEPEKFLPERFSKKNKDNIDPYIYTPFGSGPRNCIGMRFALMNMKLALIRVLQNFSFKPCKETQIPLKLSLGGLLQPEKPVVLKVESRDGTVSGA

O=C(c1csc(-c2cn[nH]c2)c1)N1C2CCC1CC(O)(c1ncccn1)C2 (stereo not shown) [compound 4]
Liver microsomal stability (% parent at 30 min), human [1]: 99 ± 1 [3] % parent at 30 min
IC50 [2]: > 50 µM
CCSF, 5h (concentration in CSF) ([3]; 35 mg b.i.d, Day 4, 5 h post-dose, mean (CV%), listed as UE2343): 69.8 (44%) ng·mL^−1
Tmax ([3]; 35 mg b.i.d, Day 4): 5.1 (3–5) h
extent of accumulation in plasma after repeated dosing ([3]; 35 mg b.i.d, Day 4 vs Day 1): 3.3 fold
time post‐dose at which mean Cmax was reached ([3]; 35 mg b.i.d, Days 1 and 4): 5 h
CSF concentration relative to IC50 at Cmin ([3]; 35 mg twice daily, in words): more than fivefold
CSF concentration relative to IC50 at Cmax ([3]; 35 mg twice daily, in words, listed as UE2343): up to ninefold greater
Kp at 5 h ([3]; male, CSF (relative to free plasma), oral, 35 mg b.i.d, Day 4, read-out: CSF levels as % of the free plasma levels, range): 0.25 to 0.4
Kp at 5 h ([3]; male, CSF (relative to free plasma), oral, 35 mg b.i.d, at plasma Cmax on Day 4, read-out: mean CSF levels as % of the free plasma levels): 0.33
Kp at 5 h ([3]; male, CSF (relative to total plasma), oral, 35 mg b.i.d, Day 4, read-out: CSF concentration as % of simultaneous total plasma levels, range): 0.0746 to 0.119
Kp at 5 h ([3]; male, CSF (relative to total plasma), oral, 35 mg b.i.d, at plasma Cmax on Day 4, read-out: mean CSF levels as % of the total plasma levels): 0.1
concentration at 5 h ([3]; male, oral, 35 mg b.i.d, Day 4, 5 h post-dose, mean (CV%), read-out: CCSF, 5h (concentration in CSF)): 69.8 ng/mL
concentration at 5 h ([3]; male, oral, 35 mg b.i.d, Day 4, 5 h post-dose, read-out: concentration in the CSF, range over subjects): 41.2 to 99.9 ng/mL
Cmax [3, 8]: 235 ng/mL
half-life [3, 8]: 6.24 h
AUC(0-t) [3, 8]: 1710 ng·h/mL
Cmax [3, 9]: 708 ng/mL
half-life [3, 9]: 8.97 h
AUC(0-t) [3, 9]: 5670 ng·h/mL
Tmax ([3]; male, plasma, oral, 35 mg b.i.d, Day 1, read-out: Tmax): 5.1 h
Liver microsomal stability (% parent at 30 min), dog [4]: 92 ± 5 [3] % parent at 30 min
safety and tolerability ([5]; 2 to 35 mg q.d and 10 to 35 mg b.i.d, in words): safe and well tolerated
intensity of TEAEs ([5]; CSF study, 35 mg b.i.d, in words): mild to moderate
increased alanine aminotransferase, subjects ([5]; CSF study, four subjects, in words): a single subject
diarrhoea, subjects [5, 10]: 2/24
headache (most common TEAE), subjects [5, 10]: 7/24
thrombophlebitis, subjects [5, 10]: 3/24
intensity of TEAEs [5, 11]: mild or moderate
serious TEAEs or TEAEs leading to withdrawal [5, 11]: No serious TEAEs
number of subjects with ≥1 TEAEs ([5]; single ascending dose study): 9
off‐target profile in diversity screen [6]: clean off‐target profile
IC50 ([7]; Chinese hamster lung cells expressing hERG, mean ± SD [n]): > 30 µM
inhibition of the hERG channel ([7]; up to a concentration of 30 μM, in words): only marginal inhibition
